From US9850219B1, “Phenothiazine derivatives and methods of use thereof” (Acenda Pharma, Inc., priority 2016, dated 2017)

Columns and labels:
[1] = system: MCF7; assay: Cytotoxicity, sulforhodamine B (SRB) assay, MCF7; assay type: cell-based, human; details: Homo sapiens, MCF7, Breast, 48 h
Excerpt: (§1) Human non-small cell lung cancer (NSCLC) cell lines (e.g., A549, H441GL and H1299), colon cancer cell lines (e.g., HCT116 and DLD1), breast cancer cell lines (e.g., MCF7 and MDA-MB-231), and pancreatic cancer cell lines (e.g., PANC-1 and SUIT-2) were used in cytotoxicity studies. These NSCLC cell lines have intrinsic resistance to epidermal growth factor receptor (EGFR) inhibitors, e.g., gefitinib. A549 and H441GL are EGFR-wild type adenocarcinoma cell lines. H1299 is an EGFR-wild type large cell carcinoma cell line. HCT116 and DLD1 are metastatic colon cell lines. MCF7 is a hormone-responsive breast cancer cell line. MDA-MB-231 is a triple-negative breast cancer cell line. PANC-1 is a metastatic adenocarcinoma cell line. SUIT-2 is a pancreatic ductal adenocarcinoma cell line.
(§2) All cell lines were grown and maintained in RPMI medium supplemented with 10% fetal bovine serum (FBS, Invitrogen), 2 mM L-glutamine, 100 U/mL penicillin, and 100 μg/mL streptomycin. For cell the culture experiment, stock solution (10 mM) of each test compound was dissolved in dimethyl sulfoxide (DMSO; Sigma).
(§3) Cells were plated in 96-well plates at a density of 2000 cells per well in triplicate. The cells in each well were treated on the third day (to ensure proper plating efficiency and vitality) with different concentrations (0-50 μM) of each test compound for 48 h.
(§4) Cell viability was assessed using the sulforhodamine B (SRB) assay. The medium was discarded, and the adherent cells were fixed by 100 μL of cold 10% trichloroacetic acid (w/v) in each well for 1 h at 4° C. After fixation, cells were stained with 100 μL/well of 0.4% (w/v, in 1% acetic acid) SRB solution for 30 min at room temperature, and then washed 5 times with 1% acetic acid. After air-drying, 100 μL of 10 mM Tris base was added to each well and the absorbance was read at 530 nm. Cytotoxicity is expressed as the percent of cells in drug treated wells relative to number of cells in the solvent only control (set to 100%). Each experiment was performed independently in triplicate and cytotoxicity IC50 value of each test compound was calculated from cytotoxicity data obtained at various concentrations.

[2] = system: lung cancer cells; assay: Cytotoxicity SRB assay, summary of Table 2; assay type: cell-based, Human; details: summary in words of Table 2
Excerpt: as §1, §3, §4
NA indicates no activity.

[3] = system: DLD1; assay: Cytotoxicity, sulforhodamine B (SRB) assay, DLD1; assay type: cell-based, human; details: Homo sapiens, DLD-1, DLD1, Colon, 48 h
Excerpt: as §1, §2, §3, §4

[4] = system: SUIT-2; assay: Cytotoxicity, sulforhodamine B (SRB) assay, SUIT-2; assay type: cell-based, human; details: Homo sapiens, SUIT-2, Pancreas, 48 h
Excerpt: as §1, §2, §3, §4

[5] = system: HCT116; assay: Cytotoxicity, sulforhodamine B (SRB) assay, HCT116; assay type: cell-based, human; details: Homo sapiens, HCT-116, HCT116, Colon, 48 h
Excerpt: as §1, §2, §3, §4

[6] = system: H441GL; assay: Cytotoxicity, sulforhodamine B (SRB) assay, H441GL; assay type: cell-based, Human; details: Homo sapiens, 48 h, NA indicates no activity
Excerpt: as §1, with “These NSCLC cell lines have intrinsic resistance to epidermal growth factor receptor (EGFR) inhibitors, e.g., gefitinib.” left out
as §2, §3, §4

[7] = system: H1299; assay: Cytotoxicity, sulforhodamine B (SRB) assay, H1299; assay type: cell-based; details: Homo sapiens, NCI-H1299, H1299, 48 h
Excerpt: as §1, with “These NSCLC cell lines have intrinsic resistance to epidermal growth factor receptor (EGFR) inhibitors, e.g., gefitinib.” left out
as §2, §3, §4

[8] = system: MDA-MB-231; assay: Cytotoxicity, sulforhodamine B (SRB) assay, MDA-MB-231; assay type: cell-based, human; details: Homo sapiens, MDA-MB-231, Breast, 48 h
Excerpt: as §1, §2, §3, §4

[9] = system: H441GL cells; assay: Study 2: tumor size in mouse lung cancer model; assay type: in vivo, NOD/SCID mice; details: Study 2, 0.0127 mmol/kg daily, i.p.; for Tumor Size [Fold Change from Week 3 (Mean ± SD, n = 4)] Week 3: Week 3 (baseline, start of treatment)
Procedure: H441GL cells (1×10^6 cells in 100 μL phosphate-buffered saline/injection) were subcutaneously injected into the right flank of NOD/SCID mice (female, 4-6 weeks old). Mice were allowed 2 weeks for tumor growth. On the first day of Week 3 post injection, tumor-bearing mice were randomly divided into control group (DMSO vehicle, intraperitoneal (i.p.) injection) and test compound treatment groups (5 mg/kg/day, 5 days/week, i.p. injection). Over the period of 10 weeks, tumorigenesis in both groups was measured using a caliper on a weekly basis. The change in tumor size was expressed as in fold change from Week 3. In this study body weight of each mouse was also recorded at the end of each study week.
In this study, the daily dose was 0.0127 mmol/kg instead of 5 mg/kg.

[10] = system: A549; assay: Cytotoxicity, sulforhodamine B (SRB) assay, A549; assay type: cell-based, Human; details: Homo sapiens, A549, 48 h, NA indicates no activity
Excerpt: as §1, with “These NSCLC cell lines have intrinsic resistance to epidermal growth factor receptor (EGFR) inhibitors, e.g., gefitinib.” left out
as §2, §3, §4

[11] = system: PANC-1; assay: Cytotoxicity, sulforhodamine B (SRB) assay, PANC-1; assay type: cell-based, human; details: Homo sapiens, PANC-1, Pancreas, 48 h, NA = no activity
Excerpt: as §1, §2, §3, §4

[12] = system: NSCLC cells; details: from WO2015/184794, WO2013/060305, Yeh et al. 2012; cited from earlier work
[13] = system: CSCs in human NSCLC cell lines; details: from US 2014/0294994, WO2013/060305, WO2015/184794; cited from earlier work

SMILES	IC50 [1]	inhibition of cell proliferation of lung cancer cells [2]	IC50 [3]	IC50 [4]	IC50 [5]	IC50 [6]	IC50 [7]	IC50 [8]	Tumor Size [Fold Change from Week 3 (Mean ± SD, n = 4)] Week 3 [9]	Tumor Size [Fold Change from Week 3 (Mean ± SD, n = 4)] Week 9 [9]	Tumor Size [Fold Change from Week 3 (Mean ± SD, n = 4)] Week 13 [9]	IC50 [10]	IC50 [11]	cytotoxicity to NSCLC cells [12]	anti-tumor effects, growth of CSCs in human NSCLC cell lines [13]
COCC(COCC(COCC(COCCOCCOCCN1CCN(CCCN2c3ccccc3Sc3ccc(C(F)(F)F)cc32)CC1)OC)OC)OC (stereo not drawn) [Compound 25-1b, NDT-[CH2CH2O]n—[CH2CH(OCH3)CH2O]3—CH3]	12.2 µM	inhibit cell proliferation	11.7 µM	10.9 µM	7.2 µM	8.8 µM	6.9 µM	11.2 µM	1 ± 0 Fold Change	10.2 ± 1.4 Fold Change	25.0 ± 4.4 Fold Change	11.4 µM	10 µM		
COCC(COCC(COCC(COCCOCCOCCOCCOCCOCCOCCOCCOCCN1CCN(CCCN2c3ccccc3Sc3ccc(C(F)(F)F)cc32)CC1)OC)OC)OC (stereo not drawn) [Compound 25-2b, NDT-[CH2CH2O]n—[CH2CH(OCH3)CH2O]3—CH3]	10.9 µM	inhibit cell proliferation	15.3 µM	13 µM	11.4 µM	11.4 µM	13.9 µM	13.1 µM	1 ± 0 Fold Change	13.0 ± 1.6 Fold Change	35.7 ± 5.3 Fold Change	14 µM	2.9 µM		
COCCOCCOCCOCC(COCC(COCC(CN1CCN(CCCN2c3ccccc3Sc3ccc(Cl)cc32)CC1)OC)OC)OC (stereo not drawn) [Compound 26-1a, NDP-[CH2CH(OCH3)CH2O]3—[CH2CH2O]n—CH3]	14.6 µM	inhibit cell proliferation	22.3 µM	25.8 µM	11.2 µM	12.1 µM	24.9 µM	13.5 µM				11.2 µM	15.8 µM		
COCCOCCOCCOCCOCCOCCOCCOCCOCCOCC(COCC(COCC(CN1CCN(CCCN2c3ccccc3Sc3ccc(Cl)cc32)CC1)OC)OC)OC (stereo not drawn) [Compound 26-2a, NDP-[CH2CH(OCH3)CH2O]3—[CH2CH2O]n—CH3]	24.2 µM	inhibit cell proliferation	32.8 µM	26.9 µM	13.3 µM	25.4 µM	42.6 µM	16.3 µM				23.8 µM	27.9 µM		
COCCOCCOCCOCCOCCOCCOCCOCCOCCOCC(COCC(COCC(CN1CCN(CCCN2c3ccccc3Sc3ccc(C(F)(F)F)cc32)CC1)OC)OC)OC (stereo not drawn) [Compound 26-2b, NDT-[CH2CH(OCH3)CH2O]3—[CH2CH2O]n—CH3]	10 µM	inhibit cell proliferation	19.2 µM	17.2 µM	8.9 µM	12.1 µM	25.3 µM	12.5 µM				15.6 µM	12.9 µM		
OCC(O)COCC(O)COCC(O)CN1CCN(CCCN2c3ccccc3Sc3ccc(Cl)cc32)CC1 (stereo not drawn) [Compound 33a, NDP-[CH2CH(OH)CH2O]3—H]	26 µM	inhibit cell proliferation	35.2 µM	34 µM	20.2 µM	25 µM	28.4 µM	24.2 µM				35.2 µM	30.2 µM		
OCC(O)COCC(O)COCC(O)CN1CCN(CCCN2c3ccccc3Sc3ccc(C(F)(F)F)cc32)CC1 (stereo not drawn) [Compound 33b, NDT-[CH2CH(OH)CH2O]3—H]	13.8 µM	inhibit cell proliferation	26.4 µM	25.7 µM	14.9 µM	17.9 µM	20.8 µM	14.8 µM				19.8 µM	23.5 µM		
Clc1ccc2c(c1)N(CCCN1CCNCC1)c1ccccc1S2 [NDP, 10-[3-(1-Piperazinyl)propyl]-2-chloro-10H-phenothiazine, reference compound]		inhibit cell proliferation				8.4 µM	6.6 µM					9.7 µM		shown cytotoxicity	
CN1CCN(CCCN2c3ccccc3Sc3ccc(Cl)cc32)CC1 [PCP, prochlorperazine]		inhibit cell proliferation												shown cytotoxicity	inhibiting the growth of CSCs
CN1CCN(CCCN2c3ccccc3Sc3ccc(C(F)(F)F)cc32)CC1 [TFP, trifluoperazine, reference compound]		inhibit cell proliferation				21.6 µM	28.7 µM					23.5 µM		shown cytotoxicity	inhibiting the growth of CSCs
